The values below come from ChEMBL document CHEMBL1201862, “PubChem BioAssay data set” (2004).

Calls of active or inactive are those of the source.

Experiment [1] has as its target Troponin, cardiac muscle (Homo sapiens, UniProt P19429+P45379+P63316). As to the kind of experiment: Fluorescence-based biochemical high throughput dose response assay for activators of the calcium sensitivity of cardiac Regulated Thin Filaments (RTF). [Related pubchem assays (depositor defined):AID493008, AID493018, AID504382, AID504383]. The class given is protein-complex assay.

Experiment [2] deals with Cytochrome P450 2C9 (Homo sapiens, UniProt P11712).
The nature of experiment [3]: cells. The class given is functional.
Experiment [4] addresses T1, Replicative DNA helicase DnaB (Mycobacterium tuberculosis, UniProt P9WMR3).
T1 sequence (P9WMR3 whole entry): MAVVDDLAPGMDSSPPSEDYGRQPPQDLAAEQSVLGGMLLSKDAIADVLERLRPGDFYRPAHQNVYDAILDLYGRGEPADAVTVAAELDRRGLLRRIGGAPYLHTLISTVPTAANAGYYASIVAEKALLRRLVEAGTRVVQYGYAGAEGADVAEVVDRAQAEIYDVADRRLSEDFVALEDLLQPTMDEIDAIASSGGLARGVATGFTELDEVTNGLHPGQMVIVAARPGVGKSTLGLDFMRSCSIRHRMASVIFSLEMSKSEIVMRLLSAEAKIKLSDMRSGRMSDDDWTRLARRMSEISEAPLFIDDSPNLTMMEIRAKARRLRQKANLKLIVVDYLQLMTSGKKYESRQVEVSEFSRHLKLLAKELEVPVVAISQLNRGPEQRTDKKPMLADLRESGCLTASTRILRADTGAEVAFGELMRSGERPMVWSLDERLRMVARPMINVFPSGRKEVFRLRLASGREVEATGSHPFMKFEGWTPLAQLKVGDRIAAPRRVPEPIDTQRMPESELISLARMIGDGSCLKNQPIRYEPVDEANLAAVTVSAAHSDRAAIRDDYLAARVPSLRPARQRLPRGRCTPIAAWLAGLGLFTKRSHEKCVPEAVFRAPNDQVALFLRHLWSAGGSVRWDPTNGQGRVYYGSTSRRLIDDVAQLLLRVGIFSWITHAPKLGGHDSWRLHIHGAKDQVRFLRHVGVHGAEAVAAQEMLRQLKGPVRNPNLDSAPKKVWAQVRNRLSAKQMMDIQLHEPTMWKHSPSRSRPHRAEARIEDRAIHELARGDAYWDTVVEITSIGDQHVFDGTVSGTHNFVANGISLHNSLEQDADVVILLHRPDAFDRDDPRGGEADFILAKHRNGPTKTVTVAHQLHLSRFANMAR
The experiment in a line: DnaB intein splicing inhibitors, dose response, biochemical, cell-free fluorescence (AID 449749). The class given is functional.

Experiment [5] concerns the target T2, Protein RecA (Mycobacterium tuberculosis, UniProt P9WHJ3).
T2 sequence (P9WHJ3 whole entry): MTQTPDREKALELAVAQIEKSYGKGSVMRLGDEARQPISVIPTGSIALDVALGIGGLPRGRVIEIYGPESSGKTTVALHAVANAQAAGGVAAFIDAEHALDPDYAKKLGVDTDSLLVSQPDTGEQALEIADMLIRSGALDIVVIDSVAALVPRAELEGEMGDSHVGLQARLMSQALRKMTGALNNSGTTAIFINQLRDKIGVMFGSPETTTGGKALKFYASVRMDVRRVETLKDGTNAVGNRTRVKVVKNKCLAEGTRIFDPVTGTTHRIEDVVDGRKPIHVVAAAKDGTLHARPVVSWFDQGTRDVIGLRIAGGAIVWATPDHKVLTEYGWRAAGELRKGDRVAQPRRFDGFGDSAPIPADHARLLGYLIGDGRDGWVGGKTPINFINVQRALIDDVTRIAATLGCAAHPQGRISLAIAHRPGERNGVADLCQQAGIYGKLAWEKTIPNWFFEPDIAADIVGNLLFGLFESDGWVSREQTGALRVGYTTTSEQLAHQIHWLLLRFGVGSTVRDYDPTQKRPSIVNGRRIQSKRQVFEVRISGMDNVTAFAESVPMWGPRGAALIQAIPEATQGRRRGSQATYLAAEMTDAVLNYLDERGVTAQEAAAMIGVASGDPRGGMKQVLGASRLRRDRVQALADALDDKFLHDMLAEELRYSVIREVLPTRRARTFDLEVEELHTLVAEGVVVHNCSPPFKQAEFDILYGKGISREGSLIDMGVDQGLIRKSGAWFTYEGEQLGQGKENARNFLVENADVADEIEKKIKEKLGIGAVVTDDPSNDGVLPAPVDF
The experiment in a line: Fluorescence Cell-Free Homogeneous Dose Retest to Identify Inhibitors of RecA-Intein Splicing Activity. [Related pubchem assays (depositor defined):AID2097, AID2223, AID489010, AID492950]. In kind it is functional.

Experiment [6] has as its system T-cell. The experiment in a line: inhibitors of CD8+ T cell–vesicle binding, dose response, mouse 2C CD8+ T cells, flow cytometry (AID 485284). The class given is functional. (In general: A flow cytometer gives signals particle by particle.)
Experiment [7] addresses T3, Endoribonuclease toxin MazF (Escherichia coli K-12, UniProt P0AE70).
T3 sequence (P0AE70 whole entry): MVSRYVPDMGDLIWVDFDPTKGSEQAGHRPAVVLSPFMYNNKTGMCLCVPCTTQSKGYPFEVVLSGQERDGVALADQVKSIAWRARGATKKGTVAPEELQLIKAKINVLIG
The experiment in a line: fluorescent RNA oligo signal without MazF, dose response, counter-screen for MazEF activator project, biochemical, fluorescence, single-stranded RNase substrate (AID 588502). The class given is functional. (A counterscreen serves to expose hits that act by an unwanted route or on another target.)

Experiment [8] has as its target T4, Heat shock factor protein 1 (Mus musculus, UniProt P38532).
T4 sequence (P38532 whole entry): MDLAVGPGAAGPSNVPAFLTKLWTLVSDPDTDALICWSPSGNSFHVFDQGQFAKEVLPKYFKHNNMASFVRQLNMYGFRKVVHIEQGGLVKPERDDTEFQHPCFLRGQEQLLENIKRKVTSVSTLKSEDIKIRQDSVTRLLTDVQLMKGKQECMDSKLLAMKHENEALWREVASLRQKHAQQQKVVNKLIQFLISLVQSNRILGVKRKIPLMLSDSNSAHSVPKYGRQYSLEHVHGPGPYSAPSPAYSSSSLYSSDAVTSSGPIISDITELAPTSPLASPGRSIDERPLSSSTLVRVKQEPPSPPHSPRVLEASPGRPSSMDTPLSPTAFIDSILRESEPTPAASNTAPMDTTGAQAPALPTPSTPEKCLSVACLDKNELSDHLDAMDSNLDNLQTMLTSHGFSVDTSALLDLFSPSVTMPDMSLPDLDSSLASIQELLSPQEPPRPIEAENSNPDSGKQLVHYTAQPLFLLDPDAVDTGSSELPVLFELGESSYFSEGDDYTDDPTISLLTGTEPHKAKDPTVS
As to the kind of experiment: inhibition of MG132-induced HSE-luciferase signal, confirmation, cell-based, NIH3T3, luminescence, dose retest (AID 2382).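 Further: NIH3T3 fibroblasts with HSF1-driven luciferase reporter stressed by proteasome inhibitor MG132; luminescence from HSF1-driven luciferase expression after 8 hours of MG132 stress.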 In kind it is functional.

A short description of experiment [9]: ZM109 Env clade C HIV-1 fusion inhibitors, dose response, HeLa effector, CEM target cells, luciferase, cherry-pick (AID 652058). The class given is functional, cell-based.
Experiment [10] concerns the target T3, Endoribonuclease toxin MazF. The experiment in a line: MazF toxin RNase activators, dose response, biochemical, fluorescence, single-stranded RNA substrate, uHTS hits (AID 588481). The class given is functional.
Experiment [11] deals with DNA damage-inducible transcript 3 protein (Mus musculus, UniProt P35639). In kind it is functional, Cricetulus griseus.
The nature of experiment [12]: inhibitors of HIV Env-driven cell fusion, dose response, cherry-pick (AID 652057). The class given is functional, cell-based.
The target of experiment [13] is X-box-binding protein 1 (Homo sapiens, UniProt P17861). In kind it is functional, Cricetulus griseus.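 Further: confirmatory dose-response counter-screen serving a CHOP assay.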
The nature of experiment [14]: inhibitors of clade B AD8 Env fusion, dose response, cell-based, cherry-pick (AID 652062).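 Further: luciferase signal from cell-cell fusion driven by HIV-1 clade B AD8 Env; potency is for inhibitors of fusion seen as a drop in luminescence.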 The class given is functional.
A short description of experiment [15]: off-target signal loss in HeLa-CEM21 co-culture – HeLa F-luc CTL cells, cherry-picked, counter-screen for HIV-1 Env fusion inhibitor project, dose response (AID 652040).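 Further: potency for signal decrease marking cytotoxic or nonspecific inhibition.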 The class given is functional, cell-based.
Experiment [16] addresses T5, Coagulation factor XII (Homo sapiens, UniProt P00748).
T5 sequence (P00748 whole entry): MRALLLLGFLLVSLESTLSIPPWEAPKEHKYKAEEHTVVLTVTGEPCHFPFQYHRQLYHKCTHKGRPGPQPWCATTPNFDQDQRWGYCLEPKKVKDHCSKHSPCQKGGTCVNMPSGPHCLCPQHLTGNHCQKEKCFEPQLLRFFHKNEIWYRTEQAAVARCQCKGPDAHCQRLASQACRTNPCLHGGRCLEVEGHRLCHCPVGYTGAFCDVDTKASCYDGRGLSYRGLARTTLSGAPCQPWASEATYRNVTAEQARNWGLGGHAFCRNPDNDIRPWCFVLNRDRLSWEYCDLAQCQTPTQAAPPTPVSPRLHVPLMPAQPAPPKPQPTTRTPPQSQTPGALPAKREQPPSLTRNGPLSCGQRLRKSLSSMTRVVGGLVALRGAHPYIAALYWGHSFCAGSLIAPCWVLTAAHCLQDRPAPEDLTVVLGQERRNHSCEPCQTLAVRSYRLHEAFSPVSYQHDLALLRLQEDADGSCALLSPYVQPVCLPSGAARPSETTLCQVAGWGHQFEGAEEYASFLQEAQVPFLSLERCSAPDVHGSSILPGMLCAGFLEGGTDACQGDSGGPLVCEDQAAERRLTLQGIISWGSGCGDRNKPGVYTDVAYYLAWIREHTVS
In kind it is functional.

Experiment [17] concerns the target T6, Rac GTPase-activating protein 1 (Homo sapiens, UniProt Q9H0H5).
T6 sequence (Q9H0H5 whole entry): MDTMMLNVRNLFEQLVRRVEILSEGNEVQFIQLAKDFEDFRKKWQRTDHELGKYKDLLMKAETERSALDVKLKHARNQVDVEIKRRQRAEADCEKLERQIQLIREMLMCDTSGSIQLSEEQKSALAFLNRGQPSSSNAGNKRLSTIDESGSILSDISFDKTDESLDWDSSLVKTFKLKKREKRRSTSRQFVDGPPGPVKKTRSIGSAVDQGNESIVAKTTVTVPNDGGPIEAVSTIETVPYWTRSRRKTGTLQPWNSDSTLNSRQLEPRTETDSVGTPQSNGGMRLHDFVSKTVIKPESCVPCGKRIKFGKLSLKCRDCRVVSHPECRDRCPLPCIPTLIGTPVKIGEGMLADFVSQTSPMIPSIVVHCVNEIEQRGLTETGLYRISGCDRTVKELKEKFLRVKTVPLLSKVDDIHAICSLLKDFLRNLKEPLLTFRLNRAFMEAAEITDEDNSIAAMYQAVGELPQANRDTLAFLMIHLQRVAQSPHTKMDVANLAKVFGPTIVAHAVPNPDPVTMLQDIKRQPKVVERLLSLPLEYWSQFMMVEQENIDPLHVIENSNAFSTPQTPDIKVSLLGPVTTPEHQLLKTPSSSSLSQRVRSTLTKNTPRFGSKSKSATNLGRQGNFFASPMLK
As to the kind of experiment: MgcRacGAP GTPase-activating activity inhibitors, confirmation, biochemical, ADP Hunter fluorescence, primary and confirmatory (AID 624330). The class given is functional.

`CCN1C(=O)/C(=C/C=C2/SCCN2C)SC1=S`: the 50% effective concentration (EC50) (in general, the concentration at which the effect is half-maximal) in [1] is 1.54 µM (active). For the same molecule, in [2], the AC50 (commonly the midpoint of the concentration-response curve, whichever way the signal moves) is 4.47 µM (inconclusive).
`COc1ccc(NC(=O)Nc2ccc(O)c3ccccc23)cc1`: in [3], the concentration for half-maximal inhibition (IC50) (commonly the concentration that gives 50% inhibition) is > 50 µM (active). The AC50 in [4] is 18 µM (active). Further, the results for the EC50 in [5] and in [6] were 0.722 µM (active) and 12.5 µM (active), respectively.
Regarding `O=C(CNCc1cccs1)Nc1ccc(S(=O)(=O)N2CCCCC2)cc1`, the EC50 in [1] is > 71.5 µM (inactive).
`Cc1cccc2cc3c(N)c(C#N)sc3nc12`: the EC50 in experiment [7] is 43.1 µM (inactive); in experiment [8], > 195 µM (not active); in experiment [10], > 99 µM (inactive). Also, the AC50 in experiment [9] is 6.95 µM (active); in experiment [12], 2.64 µM (active); in experiment [14] it was 5.1 µM (active); in experiment [15], 1.94 µM (active). Also, in [11], the “Absolute IC50 (CHOP)” value stood at 10 µM. Besides, the “Absolute IC50 (XBP1)” value in [13] was 10 µM.
In the case of `CC1=C(C(=O)Nc2ccc(C)cc2C)C(c2cccc(Cl)c2)n2nc(C(=O)OC(C)C)nc2N1` (stereo unspecified), in experiment [11], the “Absolute IC50 (CHOP)” value came out at 10 µM. Also, the “Absolute IC50 (XBP1)” value in experiment [13] was found to be 10 µM.
With `Cc1ccc(OCc2nnc(SCC(=O)O)n2N)cc1`, in experiment [16], the IC50 is > 50 µM (inactive).
In the case of `COC(=O)c1ccc(NC(=S)Nc2ccc(O)cc2)cc1`, the IC50 in experiment [17] was 43.1 µM (active); in experiment [16], > 50 µM (inactive).
